Results from patent US8889370B2, “Method of determining inhibitors of coagulation” (Siemens Healthcare Diagnostics Products GmbH, priority 2010, dated 2014).
pKi: −log10 of the molar value.

Assays:
F Xa [1] = target: T1, F Xa (Homo sapiens, UniProt P00742); settings: Prasa et al. 1997; Perzborn 2009; read-out: binding constant for F Xa; cited from earlier work
F Xa [2] = target: T1, F Xa; assay: LOCI chemiluminescence competition assay for F Xa inhibitors in standard human plasma, ligand B-r-G-R-H; format: binding; set-up: 10 μl of a reagent containing human F Xa (approx. 1000 IU/l); settings: standard human plasma with increasing inhibitor concentrations, anti-F Xa antibody-coated Chemibeads, FIG. 9
Method: The signal-producing system used was the LOCI system according to example 4.
The Chemibeads used herein were additionally coated with a commercially available polyclonal antibody to F Xa. For this, the antibody was linked covalently to the latex particles in a coupling ratio of 10 mg of antibody to […] of particles. The Sensibeads used herein were additionally coated with streptavidin.
The ligand used was the biotinylated peptide aldehyde biotinyl-Ttds-D-Arg-Gly-Arg-H (B-r-G-R—H).
In the absence of an F Xa inhibitor, the ligand binds, via its biotin residue, to the streptavidin-coated Sensibeads and, via its peptide moiety, to the F Xa which itself binds to the antibody-coated Chemibeads, and a chemiluminescence signal is generated (see also FIG. 1).
10 μl of a reagent containing human F Xa (approx. 1000 IU/l) and fibrin polymerization inhibitor peptide glycine-proline-arginine-proline (10 mg/ml) were admixed with 2 μl of sample, 20 μl of Chemibeads (400 μg/ml) and 10 μl of the ligand (6 μM) and incubated for 5 minutes. After addition of 60 μl of Sensibeads (200 μg/ml) and incubation for 10 minutes, the mix was filled with water to 260 μl and the chemiluminescence signal was measured. As FIG. 9 indicates, the chemiluminescence signal is reduced as a function of the type and concentration of the direct F Xa and thrombin inhibitors metered in.

thrombin = thrombin (Homo sapiens, UniProt P00734); set-up: binding constant for thrombin: unit not given here; settings: cited from earlier work

Compound: CC1CNc2c(cccc2S(=O)(=O)N[C@@H](CCCNC(=N)N)C(=O)N2CC[C@@H](C)C[C@@H]2C(=O)O)C1 (stereo partly drawn) [argatroban]
- pKi (F Xa [1]): 3.68
- chemiluminescence signal (F Xa [2]): not reduced

Compound: O=C(NC[C@H]1CN(c2ccc(N3CCOCC3=O)cc2)C(=O)O1)c1ccc(Cl)s1 [rivaroxaban]
- binding to thrombin, times more weakly than to F Xa (thrombin; Perzborn 2009): up to 10 000 times
- chemiluminescence signal (F Xa [2]): inversely proportional

Compound: hirudin
- binding constant for thrombin (thrombin; Prasa et al. 1997): 2.7×10^−14
- chemiluminescence signal (F Xa [2]): not reduced
